Values after ≈ are worked out from the molar mass of the structure shown. Where two headings read alike, the source gives them in different places.
Experiments:
[1] = tested on: Staphylococcus aureus Mu50; experiment: In vitro activity assay, minimum inhibitory concentration (MIC), cup-plate method; type: cell-based
Method: (§1) In vitro activity assay was performed according to Microbiological Identification of Antibiotics, Appendix XIA, Volume II, Chinese Pharmacopoeia 2010. Vancomycin-sensitive Staphylococcus aureus strains (Newman and Mu 50) were selected as the test strains, and trypticase soy broth was selected as the culture medium.

[2] = tested on: Staphylococcus aureus Newman; experiment: as above; type: cell-based; conditions: read-out: MIC values, Staphylococcus aureus Newman
Method: as §1

[3] = Solubility test of compounds in water; conditions: 25 °C, thermodynamic from solid
physchem = conditions: 25 °C, water, thermodynamic from solid
[4] = data from US2010/045201; cited from earlier work
[5] = strain Mu50, trypticase soy broth, read-out: MIC values, Staphylococcus aureus Mu50
[6] = strain Newman, trypticase soy broth

Row | MIC [1, 5] [µg/mL] | MIC [2, 6] [µg/mL] | solubility at 30 min (physchem) [µg/mL] | Compound | MIC ([1]; MU50, read-out: MIC values, Staphylococcus aureus Mu50) [µg/mL] | MIC ([2]; NEWMAN) [µg/mL] | solubility at 30 min [3] [µg/mL] | Solubility in water [4] [µg/mL]
1 |  |  |  | CN[C@H](CC(C)C)C(=O)N[C@H]1C(=O)N[C@@H](CC(N)=O)C(=O)N[C@H]2C(=O)N[C@H]3C(=O)N[C@H](C(=O)N[C@H](C(=O)O)c4cc(O)cc(O)c4-c4cc3ccc4O)[C@H](O)c3ccc(c(Cl)c3)Oc3cc2cc(c3O[C@@H]2O[C@H](CO)[C@@H](O)[C@H](O)[C@H]2O[C@H]2C[C@](C)(N)[C@H](O)[C@H](C)O2)Oc2ccc(cc2Cl)[C@H]1O [Vancomycin] | 8 (≈ 5.52 µM) | 2 (≈ 1.38 µM) | ≥ 100000 | 
2 | 64 (≈ 41.3 µM) | 16 (≈ 10.3 µM) | 20000 (≈ 12900 µM) | CN[C@H](CC(C)C)C(=O)NC1C(=O)N[C@@H](CC(N)=O)C(=O)N[C@H]2C(=O)NC3C(=O)N[C@H](C(=O)N[C@@H](C(=O)O)c4cc(O)cc(O)c4-c4cc3ccc4O)[C@H](O)c3ccc(c(Cl)c3)Oc3cc2cc(c3OC2OC(CO)C(O)C(O)C2OC2CC(C)(NCC(OC)C(=O)O)C(O)C(C)O2)Oc2ccc(cc2Cl)[C@H]1O (stereo partly shown) [Compound V27] |  |  |  | 
3 | 32 (≈ 19.7 µM) | 8 (≈ 4.92 µM) | 50000 to 60000 (≈ 30700 to 36900 µM) | CN[C@H](CC(C)C)C(=O)NC1C(=O)N[C@@H](CC(N)=O)C(=O)N[C@H]2C(=O)NC3C(=O)N[C@H](C(=O)N[C@@H](C(=O)O)c4cc(O)cc(O)c4-c4cc3ccc4O)[C@H](O)c3ccc(c(Cl)c3)Oc3cc2cc(c3OC2OC(CO)C(O)C(O)C2OC2CC(C)(NCC(OCc3ccccc3)C(=O)O)C(O)C(C)O2)Oc2ccc(cc2Cl)[C@H]1O (stereo partly shown) [Compound V11] |  |  |  | 
4 | 64 (≈ 40.9 µM) | 16 (≈ 10.2 µM) | 4500 (≈ 2870 µM) | CN[C@H](CC(C)C)C(=O)N[C@@H]1C(=O)NC(CC(N)=O)C(=O)NC2C(=O)NC3C(=O)N[C@H](C(=O)NC(C(=O)O)c4cc(O)cc(O)c4-c4cc3ccc4O)[C@H](O)c3ccc(c(Cl)c3)Oc3cc2cc(c3OC2OC(CO)C(O)C(O)C2OC2CC(C)(NCC(OC)C(=O)OC)C(O)C(C)O2)Oc2ccc(cc2Cl)C1O (stereo partly shown) [Compound V26] |  |  |  | 
5 | 2 (≈ 1.18 µM) | < 0.125 | 20000 (≈ 11800 µM) | CC(C)C[C@@H](N)C(=O)NC1C(=O)N[C@@H](CC(N)=O)C(=O)N[C@H]2C(=O)NC3C(=O)N[C@H](C(=O)N[C@@H](C(=O)O)c4cc(O)cc(O)c4-c4cc3ccc4O)[C@H](O)c3ccc(c(Cl)c3)Oc3cc2cc(c3OC2OC(CO)C(O)C(O)C2OC2CC(C)(NCC(OCc3ccc(-c4ccccc4)cc3)C(=O)O)C(O)C(C)O2)Oc2ccc(cc2Cl)[C@H]1O (stereo partly shown) [Compound V53] |  |  |  | 
6 | 8 (≈ 4.87 µM) | 2 (≈ 1.22 µM) | > 8000 | CN[C@H](CC(C)C)C(=O)NC1C(=O)N[C@@H](CC(N)=O)C(=O)N[C@H]2C(=O)NC3C(=O)N[C@H](C(=O)N[C@@H](C(=O)O)c4cc(O)cc(O)c4-c4cc3ccc4O)[C@H](O)c3ccc(c(Cl)c3)Oc3cc2cc(c3OC2OC(CO)C(O)C(O)C2OC2CC(C)(NCC(OCc3ccc(C)cc3)C(=O)O)C(O)C(C)O2)Oc2ccc(cc2Cl)[C@H]1O (stereo partly shown) [Compound V23] |  |  |  | 
7 | 2 (≈ 1.06 µM) | < 0.125 | 5000 to 20000 (≈ 2660 to 10600 µM) | CN[C@H](CC(C)C)C(=O)N[C@@H]1C(=O)NC(CC(N)=O)C(=O)NC2C(=O)NC3C(=O)N[C@H](C(=O)NC(C(=O)O)c4cc(O)cc(O)c4-c4cc3ccc4O)[C@H](OC3CC(C)(N)C(O)C(C)O3)c3ccc(c(Cl)c3)Oc3cc2cc(c3OC2OC(CO)C(O)C(O)C2OC2CC(C)(NCC(OCc3ccc(-c4ccc(Cl)cc4)cc3)C(=O)O)C(O)C(C)O2)Oc2ccc(cc2Cl)C1O (stereo partly shown) [Compound V63] |  |  |  | 
8 | 32 (≈ 19.5 µM) | 8 (≈ 4.87 µM) | < 100 | CN[C@H](CC(C)C)C(=O)NC1C(=O)N[C@@H](CC(N)=O)C(=O)N[C@H]2C(=O)NC3C(=O)N[C@H](C(=O)N[C@@H](C(=O)O)c4cc(O)cc(O)c4-c4cc3ccc4O)[C@H](O)c3ccc(c(Cl)c3)Oc3cc2cc(c3OC2OC(CO)C(O)C(O)C2OC2CC(C)(NCC(OCc3ccccc3)C(=O)OC)C(O)C(C)O2)Oc2ccc(cc2Cl)[C@H]1O (stereo partly shown) [Compound V9] |  |  |  | 
9 | 64 (≈ 40.5 µM) | 16 (≈ 10.1 µM) | 5000 (≈ 3170 µM) | CCOC(CNC1(C)CC(OC2C(Oc3c4cc5cc3Oc3ccc(cc3Cl)[C@@H](O)[C@@H]3NC(=O)C(NC(=O)C5NC(=O)C(CC(N)=O)NC(=O)[C@@H](NC(=O)[C@@H](CC(C)C)NC)C(O)c5ccc(c(Cl)c5)O4)c4ccc(O)c(c4)-c4c(O)cc(O)cc4C(C(=O)O)NC3=O)OC(CO)C(O)C2O)OC(C)C1O)C(=O)OC (stereo partly shown) [Compound V33] |  |  |  | 
10 | 2 (≈ 1.16 µM) | < 0.125 | 15000 to 20000 (≈ 8700 to 11600 µM) | CC(C)C[C@@H](N)C(=O)NC1C(=O)N[C@@H](CC(N)=O)C(=O)N[C@H]2C(=O)NC3C(=O)N[C@H](C(=O)N[C@@H](C(=O)O)c4cc(O)cc(O)c4-c4cc3ccc4O)[C@H](O)c3ccc(c(Cl)c3)Oc3cc2cc(c3OC2OC(CO)C(O)C(O)C2OC2CC(C)(NCC(OCc3ccc(-c4ccc(Cl)cc4)cc3)C(=O)O)C(O)C(C)O2)Oc2ccc(cc2Cl)[C@H]1O (stereo partly shown) [Compound V54] |  |  |  | 
11 |  |  |  | Oritavancin |  |  |  | <100
12 | 2 (≈ 1.2 µM) | < 0.125 | > 8000 | CN[C@H](CC(C)C)C(=O)N[C@@H]1C(=O)NC(CC(N)=O)C(=O)NC2C(=O)NC3C(=O)N[C@H](C(=O)NC(C(=O)O)c4cc(O)cc(O)c4-c4cc3ccc4O)[C@H](O)c3ccc(c(Cl)c3)Oc3cc2cc(c3OC2OC(CO)C(O)C(O)C2OC2CC(C)(NCC(OCc3ccc(Cl)cc3)C(=O)O)C(O)C(C)O2)Oc2ccc(cc2Cl)C1O (stereo partly shown) [Compound V21] |  |  |  | 
13 | 8 (≈ 4.39 µM) | 2 (≈ 1.1 µM) | 5000 to 10000 (≈ 2750 to 5490 µM) | CCCCCCCCCCOC(CNC1(C)CC(OC2C(Oc3c4cc5cc3Oc3ccc(cc3Cl)[C@@H](OC3CC(C)(N)C(O)C(C)O3)[C@@H]3NC(=O)C(NC(=O)C5NC(=O)C(CC(N)=O)NC(=O)[C@@H](NC(=O)[C@@H](CC(C)C)NC)C(O)c5ccc(c(Cl)c5)O4)c4ccc(O)c(c4)-c4c(O)cc(O)cc4C(C(=O)O)NC3=O)OC(CO)C(O)C2O)OC(C)C1O)C(=O)O (stereo partly shown) [Compound V69] |  |  |  | 
14 | 8 (≈ 4.93 µM) | 2 (≈ 1.23 µM) | 50000 to 60000 (≈ 30800 to 37000 µM) | CCCCCCOC(CNC1(C)CC(OC2C(Oc3c4cc5cc3Oc3ccc(cc3Cl)[C@@H](O)[C@@H]3NC(=O)C(NC(=O)[C@@H]5NC(=O)[C@H](CC(N)=O)NC(=O)C(NC(=O)[C@@H](CC(C)C)NC)[C@H](O)c5ccc(c(Cl)c5)O4)c4ccc(O)c(c4)-c4c(O)cc(O)cc4[C@H](C(=O)O)NC3=O)OC(CO)C(O)C2O)OC(C)C1O)C(=O)O (stereo partly shown) [Compound V32] |  |  |  | 
15 | 4 (≈ 2.38 µM) | 2 (≈ 1.19 µM) | 5000 to 10000 (≈ 2980 to 5960 µM) | CCCCCCCCCCOC(CNC1(C)CC(OC2C(Oc3c4cc5cc3Oc3ccc(cc3Cl)[C@@H](O)[C@@H]3NC(=O)C(NC(=O)C5NC(=O)C(CC(N)=O)NC(=O)[C@@H](NC(=O)[C@@H](CC(C)C)NC)C(O)c5ccc(c(Cl)c5)O4)c4ccc(O)c(c4)-c4c(O)cc(O)cc4C(C(=O)O)NC3=O)OC(CO)C(O)C2O)OC(C)C1O)C(=O)O (stereo partly shown) [Compound V67] |  |  |  | 
16 | 8 (≈ 4.43 µM) | 4 (≈ 2.22 µM) | 5000 to 20000 (≈ 2770 to 11100 µM) | CN[C@H](CC(C)C)C(=O)N[C@@H]1C(=O)NC(CC(N)=O)C(=O)NC2C(=O)NC3C(=O)N[C@H](C(=O)NC(C(=O)O)c4cc(O)cc(O)c4-c4cc3ccc4O)[C@H](OC3CC(C)(N)C(O)C(C)O3)c3ccc(c(Cl)c3)Oc3cc2cc(c3OC2OC(CO)C(O)C(O)C2OC2CC(C)(NCC(OCc3ccc(Cl)cc3)C(=O)O)C(O)C(C)O2)Oc2ccc(cc2Cl)C1O (stereo partly shown) [Compound V62] |  |  |  | 
17 | 2 (≈ 1.15 µM) | < 0.125 | 3000 (≈ 1730 µM) | COC(=O)C(CNC1(C)CC(OC2C(Oc3c4cc5cc3Oc3ccc(cc3Cl)[C@@H](O)[C@@H]3NC(=O)C(NC(=O)[C@@H]5NC(=O)[C@H](CC(N)=O)NC(=O)C(NC(=O)[C@H](N)CC(C)C)[C@H](O)c5ccc(c(Cl)c5)O4)c4ccc(O)c(c4)-c4c(O)cc(O)cc4[C@H](C(=O)O)NC3=O)OC(CO)C(O)C2O)OC(C)C1O)OCc1ccc(-c2ccc(Cl)cc2)cc1 (stereo partly shown) [Compound V55] |  |  |  | 

Reference: patent US9828413B2, “Vancomycin derivative, and preparation method and application thereof” (ACESYS PHARMA INC., priority 2013, dated 2017)
